Test results published in a melting point compilation (Tetko et al.).
Peptide text beside a SMILES is read from it.

SMILES	melting point [°C]
Cc1ccc(C2(c3ccc(C)o3)C(=O)Nc3ccccc32)o1	216
S=C=NCC(c1ccccc1)c1ccccc1	36 to 38
O=[N+]([O-])c1ccc2c(c1)-c1cccc([N+](=O)[O-])c1C2	284 to 288
O=C1c2ccccc2C(=O)N1CBr	149 to 154
CC(NC(=O)CCCCNC(=O)C12CC3CC(CC(C3)C1)C2)C(=O)NC(CCC(=O)O)C(N)=O (stereo unspecified)	200
Nc1ncnc2c1ncn2Cc1c(F)cccc1Cl	245
CCCCCCCCCc1ccc(OCCOCCO)cc1	43
Nc1cccc(S(N)(=O)=O)c1	141
NCC(=O)N[C@@H](CCC(=O)O)C(=O)O (H-Gly-Glu-OH)	155 to 158
C(#Cc1ccc(/N=C/c2ccccc2)cc1)c1ccc(/N=C/c2ccccc2)cc1	207
O=C1COc2ccc(S(=O)(=O)Cl)cc2N1	178
CC(=O)C1C(=O)c2cccc([N+](=O)[O-])c2C1=O (stereo unspecified)	147 to 150
CC(=O)Nc1cccc(NCC(=O)c2ccccc2)c1	171
O=C(Cl)c1ccc(-c2csnn2)cc1	168 to 171
Cn1c(=O)c(C(N)=NO)cn(-c2ccccc2)c1=O	189 to 191
Nc1ccc(C(F)(F)F)cn1	47
FC(F)(F)c1cccnc1Br	38
CCOc1ccc(CCO)cc1	42
COC(=O)CCCCCC(=O)OC	-21
CC(=O)Oc1c(-c2ccccc2)[nH]c2cc3c(cc12)C(=O)C(c1ccccc1)=[N+]3[O-]	246
O=[N+]([O-])c1cccc2c1cnn2C1CC(O)C(CO)O1 (stereo unspecified)	140
CCCCCCCCSC(=O)Oc1cc(Cl)nnc1-c1ccccc1	27
O=c1c(Cl)c(Cl)cnn1-c1ccccc1	163 to 164
O=C(C(C(=O)N1CCCCC1)c1ccccc1)N1CCCCC1	144
O=C(O)c1ccccc1Nc1cccc(F)c1	158 to 163
O=[N+]([O-])c1ccc(C=Cc2ccc(C=Cc3ccc([N+](=O)[O-])cc3[N+](=O)[O-])cc2)c([N+](=O)[O-])c1	294

SMILES	melting point [°C]
CCCCCCCCCCCCCCCCCCCl	28.6
N#Cc1ccc(OC2CCOCC2)cc1	109 to 112
O=C(O)c1ccc(Br)nc1	184
CC(=O)c1nn(-c2ccccc2)c2cc3c(cc12)c(C(C)=O)nn3-c1ccccc1	310 to 312
O=C1C(C(O)c2ccccc2)C(C(F)(F)F)=NN1c1ccccc1 (stereo unspecified)	258
CC1CCCCS1 (stereo unspecified)	-58
CCP(=O)(CC)CC	52 to 53
CC1C(C(=O)NN)C1C(=O)NN (stereo unspecified)	242 to 245
O=C1CCc2cc(OCCCCc3nnnn3C3CCCCC3)ccc2N1	160
COc1ccc2c(=O)cc(-c3ccccc3)oc2c1	110
COC(=O)c1ccc(-c2nc(C)no2)cc1	160 to 163
Nc1cccnc1N1CCOCC1	127 to 128
NC1=NN(c2ccccc2)C(=O)C1	210 to 215
CCC(C)OC (stereo unspecified)	-100
CCN(CC)C(=O)C1C=C2c3cccc4[nH]cc(c34)CC2N(C)C1 (stereo unspecified)	82.5
CC(=O)c1cc[nH]c1	112 to 114
CCC1(c2ccccc2)C(=O)N(COC)C(=O)N(COC)C1=O	117
CCC1OC(=O)C(C)C(OC2OC(C)CC(N(C)C)C2O)C(C)CC(C)C(=O)C=CC1(C)O (stereo unspecified)	196
CC(=O)c1ccc(O)c(O)c1	117 to 119
N#C/C(=N\Nc1cccc(O)c1)c1nc2ccccc2[nH]1	238
CCOC(=O)c1cnc2cc(C)nn2c1C	100 to 101
CC(=O)OC1CCC2C3CCC4CC(CC(=O)O)CCC4(C)C3CCC12C (stereo unspecified)	151 to 153
CCC(=O)Oc1ccccc1	20
CCSC#N	-85.5
CCCCC(C=O)CC (stereo unspecified)	-76
CCOP(=S)(OCC)Oc1ccc([N+](=O)[O-])cc1	6.1

SMILES	melting point [°C]
CC=CC=CC	-79
CC(C)(C)OC(=O)NCc1ccsc1Br	71 to 72
c1ccc(CNCc2ccccc2)cc1	-26
Nc1cc(-c2ccc(Cl)cc2)nc(N)n1	158 to 161
O=C(O)C(O)n1ccnc1 (stereo unspecified)	275
BrCCI	28
CCOCn1c(-c2ccc(Cl)cc2)c(C#N)c(Br)c1C(F)(F)F	101
COc1ccc(C(=O)c2cccc(OC)c2OC)cc1OC	118 to 120
O=CC=P(c1ccccc1)(c1ccccc1)c1ccccc1	186
c1ccc(P(c2ccccc2)P(c2ccccc2)c2ccccc2)cc1	120 to 122
COc1ccn(C)c(=O)c1C#N	202
O=C(Cl)c1cc2ccccc2s1	87
O=[N+]([O-])c1ccc(Nc2ccc(O)cc2)c([N+](=O)[O-])c1	194
Brc1cccc2cnccc12	82
CC(C)Oc1ccc(S(=O)(=O)Cl)cc1	33
CCOC(=O)C1C(=N)Oc2c(c(=O)oc3ccccc23)C1c1ccc(Br)cc1 (stereo unspecified)	192
CCOC(=O)OCC	-43
O=C(c1ccc2ccccc2c1)c1noc(-c2ccc3ccccc3c2)c1S(=O)(=O)c1ccccc1	120
Sc1c(Cl)c(Cl)c(Cl)c(Cl)c1Cl	232
O=C(C(=S)N1CCOCC1)c1ccccc1	75
CNS(=O)(=O)O	189 to 193
Nc1ccc(N=Nc2ccc(N)cc2)cc1	250
CC(C)OC(=O)C1(S(=O)(=O)c2ccc(Cl)cc2)CC1	89.8
O=C(N[C@@H](Cc1ccccc1)C(=O)Oc1c(F)c(F)c(F)c(F)c1F)OCC1c2ccccc2-c2ccccc21	151 to 152
COc1cc(C=CC(=O)O)cc(OC)c1O	203 to 205
COC(=O)c1occc1C	35

SMILES	melting point [°C]
CC(=O)Oc1c(C)c(C)c2c(c1C)CCC(C)(CCCC(C)CCCC(C)CCCC(C)C)O2 (stereo unspecified)	-28
Nc1c(Br)cc(Br)cc1[N+](=O)[O-]	130
O=C(O)CC1(CC(=O)O)CCCCC1	181 to 185
CC(C)(C)NC(=O)NN	119 to 120
O=C(NCCCBr)c1cc([N+](=O)[O-])cc([N+](=O)[O-])c1	195
Cc1ccc(C(=O)CCCCl)cc1C	46 to 49
COC(=O)C(Br)C(Br)c1cccc(C(Br)C(Br)C(=O)OC)c1 (stereo unspecified)	145
CN1C(=O)CN(C(=O)OC(C)(C)C)[C@@H]1C(C)(C)C	66 to 70
OCc1cc2ccccc2s1	100
CCC#CC(=O)O	50
ClCCI	-15.6
CC(=O)OC[C@H]1O[C@@H](O[C@H]2[C@H](OC(C)=O)[C@@H](OC(C)=O)[C@@H](OC(C)=O)O[C@@H]2COC(C)=O)[C@H](OC(C)=O)[C@@H](OC(C)=O)[C@@H]1OC(C)=O	230
CN1CCN(c2ccccc2C(=O)O)CC1	67 to 72
c1csc(NC2=NCCN2)n1	240 to 242
CNC(=O)CSP(=O)(OC)OC	-28
CC(=O)c1cc([N+](=O)[O-])c(Br)s1	105 to 106
CCC(=O)c1ccco1	28
O=Cc1ccccc1OCc1c(Cl)cccc1Cl	109 to 112
N#CC1=C(N)Oc2[nH]nc(C(F)(F)F)c2C1c1ccc(Cl)cc1Cl (stereo unspecified)	199
CC1=NN(c2ccccc2)C(=O)C1C1C(=O)N(c2ccccc2)N=C1C (stereo unspecified)	355
CC(C)CC(=O)NC(C(=O)NC(C(=O)NC(CC(C)C)C(O)CC(=O)NC(C)C(=O)NC(CC(C)C)C(O)CC(=O)O)C(C)C)C(C)C (stereo unspecified)	233
CC12CCCC1C1CCC3CC(O)CCC3(C)C1CC2 (stereo unspecified)	148
COC(=O)C12C=CC(CC1)C1C(=O)OC(=O)C12 (stereo unspecified)	116 to 118
C/C(=N/NC(N)=O)C(=O)Nc1ccccc1	236 to 238
CCCSC	-113
NC(=O)CCC(=O)O	155

SMILES	melting point [°C]
N#CCc1nc(-c2ccc(Cl)c(Cl)c2)cs1	106 to 107
O=C(Cl)c1c(Cl)cccc1Cl	18
CCOC(=O)[C@H](Cc1ccc(O)cc1)NC(=O)c1ccccc1	118 to 121
CC1(C)CC(=O)C(=NNc2ccccc2)C(=O)C1	148
Nc1ncnc2c1ncn2C1CCC(CO)O1 (stereo unspecified)	185
Cc1nc2ccccc2n1CCc1n[nH]c(=S)o1	209
CC(C)(C)N(NC(=O)c1ccccc1)C(=O)c1c(F)cccc1Cl	210
O=C(c1ccncc1)N1N=C(c2ccccc2)CC1c1cn(-c2ccccc2)nc1-c1ccccc1 (stereo unspecified)	224 to 226
O=P(OCC(Br)CBr)(OCC(Br)CBr)OCC(Br)CBr (stereo unspecified)	5.5
CCOC(=O)c1sc2sc(C(=O)OCC)c(N=C3SCCS3)c2c1N=C1SCCS1	198
O=C(O)C(O)c1ccc(F)c(F)c1 (stereo unspecified)	94
CNC(=Nc1cc(C)ccn1)SC	78 to 81
CC(C)CCCC(C)O (stereo unspecified)	-105
O=C(O)CCCc1ccc2c(c1)OCCO2	76 to 78
CC1=C[C@@]2(C)O[C@@H](c3ccccc3)[C@@H]1C(C#N)(C#N)C2(C#N)C#N	170 to 171
Nc1ccn(C2CCC(CO)O2)c(=O)n1 (stereo unspecified)	218
c1ccc2c(c1)CCc1ccccc1C1(OCCO1)C21OCCO1	111
O=C(CCc1ccc(O)cc1)ON1C(=O)CCC1=O	133 to 135
Cc1o[nH]c(=O)c1CC(N)C(=O)O (racemic)	240 to 252
O=C(O)c1ccccc1-c1cccs1	92 to 95
CC12C=CC(=O)C=C1CCC1C2CCC2(C)C1CCC2(C)O (stereo unspecified)	164
Cc1ccc(S(=O)(=O)OC2CCCCC2)cc1	46
